The source of these data is PubChem BioAssay AID540270 (Broad Institute, 2011).

Calls of active or inactive are those of the source. How the calls were made is not given here.

The target of one experiment is Heat shock protein HSP 90-alpha (Homo sapiens) (UniProt P07900). The experiment can be described thus: growth inhibition of yeast carrying human Hsp90, dose response, counter-screen, plate reader, cherry-picked samples (AID 540270). To be noted: yeast expressing human Hsp90, growth.
`C[CH2][Hg][S]c1ccccc1C(=O)O`: the AC50 (in general, the concentration at which the activity in the assay is half-maximal) is 2.31 µM.

Regarding `O=C1CC(c2ccccc2)CC(O)=C1C=Nc1cccc(Cl)c1` (centres undefined), the AC50 was 4.28 µM.

Still in this experiment, the particulars now being: yeast expressing human Hsp90, growth, at 12 µM (top of the series).
For the molecule `CCN(CC)c1ccc(/C=C2/SC(=O)N(C(C)C)C2=O)o1`, the “activity, negative = inhibition” value is “inactive”.

For `O=C(/C(=C\c1ccccc1)c1nc2ccccc2[nH]1)c1ccc(Cl)cc1`, the “activity, negative = inhibition” value is “inactive”.

The same experiment, now with this note: yeast expressing human Hsp90, growth, at 26 µM (top of the series).
For `CCOC(=O)c1cc([N+](=O)[O-])cc([N+](=O)[O-])c1Sc1ncnc2nc[nH]c12`, the “activity, negative = inhibition” value is “inactive”.

For `CCCC1CCC(c2ccc(/C(N)=N/O)cc2)CC1` (centres undefined), the “activity, negative = inhibition” value is “inactive”.

Consider `Cc1ccc(-c2cc(-c3ccc(F)cc3)c(C#N)c(N)n2)o1`, for which the “activity, negative = inhibition” value was “inactive”.

On to `CC(C)OC(=O)c1ccc(NCc2cc(O)ccc2O)cc1Cl`, for which the “activity, negative = inhibition” value is “inactive”.

In the case of `O=C(COc1ccc(Cl)cc1)NC1=NN(c2ccccc2)C(=O)C1`, the “activity, negative = inhibition” value was “inactive”.

Turning to `CCOc1ccc(S(=O)(=O)NCc2ccccn2)c(C)c1C`, the “activity, negative = inhibition” value is “inactive”.

Consider `O=C1S/C(=C/c2ccc(N3CCOCC3)o2)C(=O)N1Cc1c(F)cccc1Cl`, for which the “activity, negative = inhibition” value is “inactive”.

On to `O=C(/C(=C/c1cccc(Cl)c1)c1nc2ccccc2[nH]1)c1ccccc1`, for which the “activity, negative = inhibition” value was “inactive”.

On to `O=C(CSCC(=O)N1CCCCC1)Nc1nc(-c2ccc(Cl)s2)cs1`, for which the “activity, negative = inhibition” value was “inactive”.

Consider `COc1ccc(C(=O)Nc2cc(C(=O)c3ccccc3)c(C)oc2=O)cc1`, for which the “activity, negative = inhibition” value was “inactive”.

As to `Cc1ccc(N2C(=O)C3C4C=CC(CNC(=S)Nc5cccc(Cl)c5)(O4)C3C2=O)cc1` (centres undefined), the “activity, negative = inhibition” value was “inactive”.

For the molecule `Cc1ccc(N=c2ssnc2Cl)cc1`, the “activity, negative = inhibition” value is “inactive”.

As to `CC(=NNC(=S)N1CC2CCC(CC2)C1)c1nccs1`, the “activity, negative = inhibition” value is “inactive”.

Consider `Cc1ccc(O)c(NC(=S)NC(=O)c2ccc(-c3ccc(Cl)cc3)o2)c1`, for which the “activity, negative = inhibition” value is “inactive”.

Turning to `CN(C)c1ccc(-c2cc(O)c3ncccc3c2)cc1`, the “activity, negative = inhibition” value was “inactive”.

On to `COc1cc(N=c2ssnc2Cl)c(OC)cc1Cl`, for which the “activity, negative = inhibition” value was “inactive”.

As for `Cc1csc(CNc2ncnc3ccc(-c4cccc(Cl)c4)cc23)c1`, the “activity, negative = inhibition” value is “inactive”.

As to `COc1ccc(NC(=S)Nc2ccc3snnc3c2)cc1`, the “activity, negative = inhibition” value was “inactive”.

For the molecule `O=C(/C(=C/c1ccc(Cl)cc1)c1nc2ccccc2[nH]1)c1ccccc1`, the “activity, negative = inhibition” value was “inactive”.

Turning to `O=C1C=CC(=O)N1Cc1ccccc1`, the “activity, negative = inhibition” value was “inactive”.

As to `O=C1/C(=C\c2ccc(Cl)cc2)CCC1CNc1ccc(Cl)cc1` (centres undefined), the “activity, negative = inhibition” value was “inactive”.

With `Cc1ccc(OCc2n[nH]c(=S)n2C2CCCCC2)cc1`, the “activity, negative = inhibition” value was “inactive”.

Turning to `O=C(O)c1cccc(N/N=C/c2cc(Br)cc(Br)c2O)c1`, the “activity, negative = inhibition” value was “inactive”.

For the molecule `NC(=O)/C=C\C(=O)Nc1cccc(C(F)(F)F)c1`, the “activity, negative = inhibition” value was “inactive”.

Consider `Cc1ccc(N2C(=O)C3C4C=CC(CNC(=S)Nc5ccc(F)cc5)(O4)C3C2=O)cc1` (centres undefined), for which the “activity, negative = inhibition” value is “inactive”.

As for `O=C(O)/C=C/c1cn(-c2ccccc2)nc1-c1cc2ccccc2o1`, the “activity, negative = inhibition” value is “inactive”.

`Cc1cc(Br)c2c(c1)/C(=C/C(=O)c1cccs1)C(=O)N2`: the “activity, negative = inhibition” value was “inactive”.

On to `CCOc1cc(S(=O)(=O)NC2CCCCCC2)ccc1F`, for which the “activity, negative = inhibition” value was “inactive”.

In the case of `CC1(C)N=C(SCC(=O)Nc2ccc(Cl)cc2Cl)C(c2ccccc2)=N1`, the “activity, negative = inhibition” value is “inactive”.

Turning to `Cc1ccc(/C=C2/NC(=O)N(Cc3ccc(Br)cc3)C2=O)o1`, the “activity, negative = inhibition” value was “inactive”.
